Test results reported in patent publication US10654831B2, “Antiproliferative pyrimidine-based compounds” (G1 Therapeutics, Inc., priority 2016, dated 2020).

Experiments:
Format in all cases: biochemical
CDK4/CycD = CDK4/CycD (Homo sapiens (Human), UniProt P11802); assay: CDK4/CycD kinase assay (Caliper microfluidic); settings: at Km for ATP
Method: (§1) Selected compounds disclosed herein were tested in CDK4/cyclinD1, CDK2/CycA and CDK2/cyclinE kinase assays by Nanosyn (Santa Clara, Calif.) to determine their inhibitory effect on these CDKs. The assays were performed using microfluidic kinase detection technology (Caliper Assay Platform). The compounds were tested in 12-point dose-response format in singlicate at Km for ATP. Phosphoacceptor substrate peptide concentration used was 1 μM for all assays and Staurosporine was used as the reference compound for all assays. Specifics of each assay are as described below:
CDK4/CyclinD1: Enzyme concentration: 1 nM; ATP concentration: 200 μM; Incubation time: 10 hr.

CDK6/CycD3 = CDK6/CycD3 (Homo sapiens (Human), UniProt Q00534); assay: CDK6/CycD3 kinase assay
Method: [The procedure below names another target; the source lists this target under the same test.] as §1, with “assays.” for “assays. Specifics of each assay are as described below:”

CDK2/CycE = CDK2/CycE (Homo sapiens (Human), UniProt P24941); assay: CDK2/CycE kinase assay (Caliper microfluidic); settings: at Km for ATP
Method: as §1
CDK2/CyclinE: Enzyme concentration: 0.28 nM; ATP concentration: 100 μM; Incubation time: 1 hr.

CDK2/CycA = CDK2/CycA (Homo sapiens (Human), UniProt P24941); assay: CDK2/CycA kinase assay (Caliper microfluidic); settings: at Km for ATP
Method: as §1
CDK2/CyclinA: Enzyme concentration: 0.2 nM; ATP concentration: 50 μM; Incubation time: 3 hr.

CDK5/p35 = CDK5/p35 (Homo sapiens (Human), UniProt Q00535); assay: CDK5/p35 kinase assay
CDK5/p25 = CDK5/p25 (Homo sapiens (Human), UniProt Q00535); assay: CDK5/p25 kinase assay
CDK7/CycH/MAT1 = CDK7/CycH/MAT1 (Homo sapiens (Human), UniProt P50613); assay: CDK7/CycH/MAT1 kinase assay
CDK9/CycT = CDK9/CycT (Homo sapiens (Human), UniProt P50750); assay: CDK9/CycT kinase assay
Sequence of CDK9/CycT (P50750 whole entry): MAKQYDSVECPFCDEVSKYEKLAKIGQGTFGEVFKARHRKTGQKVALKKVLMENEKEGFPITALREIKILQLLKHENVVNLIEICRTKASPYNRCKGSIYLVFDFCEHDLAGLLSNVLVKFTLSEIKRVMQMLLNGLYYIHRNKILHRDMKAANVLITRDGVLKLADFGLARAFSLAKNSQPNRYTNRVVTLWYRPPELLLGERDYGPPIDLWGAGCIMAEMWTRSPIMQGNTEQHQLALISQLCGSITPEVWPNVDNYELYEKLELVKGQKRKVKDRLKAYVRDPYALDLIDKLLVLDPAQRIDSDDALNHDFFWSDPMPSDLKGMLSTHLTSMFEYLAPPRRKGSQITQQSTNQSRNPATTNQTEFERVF
Sequence of CDK9/CycT (O60563 whole entry partner): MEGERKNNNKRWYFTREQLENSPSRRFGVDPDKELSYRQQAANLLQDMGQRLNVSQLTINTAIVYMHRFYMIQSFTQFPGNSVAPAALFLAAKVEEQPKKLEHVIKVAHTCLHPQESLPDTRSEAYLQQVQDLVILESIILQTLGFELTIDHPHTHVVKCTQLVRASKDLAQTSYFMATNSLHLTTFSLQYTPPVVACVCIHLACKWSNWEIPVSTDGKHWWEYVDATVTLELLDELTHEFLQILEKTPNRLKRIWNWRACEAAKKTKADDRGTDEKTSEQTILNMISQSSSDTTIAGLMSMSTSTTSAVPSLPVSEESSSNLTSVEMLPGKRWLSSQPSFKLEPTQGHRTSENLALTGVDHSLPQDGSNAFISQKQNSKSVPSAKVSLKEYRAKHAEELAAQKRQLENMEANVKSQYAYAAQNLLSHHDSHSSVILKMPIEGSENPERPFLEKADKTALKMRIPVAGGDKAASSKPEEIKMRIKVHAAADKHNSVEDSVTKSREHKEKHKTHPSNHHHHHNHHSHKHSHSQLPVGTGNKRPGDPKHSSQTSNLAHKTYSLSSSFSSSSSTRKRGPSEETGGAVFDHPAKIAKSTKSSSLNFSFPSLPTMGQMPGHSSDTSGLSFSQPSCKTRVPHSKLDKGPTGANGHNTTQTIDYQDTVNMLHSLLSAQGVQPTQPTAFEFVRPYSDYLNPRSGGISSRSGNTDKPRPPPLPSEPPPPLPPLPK

Sequence of CDK6/CycD3 (Q00534 whole entry): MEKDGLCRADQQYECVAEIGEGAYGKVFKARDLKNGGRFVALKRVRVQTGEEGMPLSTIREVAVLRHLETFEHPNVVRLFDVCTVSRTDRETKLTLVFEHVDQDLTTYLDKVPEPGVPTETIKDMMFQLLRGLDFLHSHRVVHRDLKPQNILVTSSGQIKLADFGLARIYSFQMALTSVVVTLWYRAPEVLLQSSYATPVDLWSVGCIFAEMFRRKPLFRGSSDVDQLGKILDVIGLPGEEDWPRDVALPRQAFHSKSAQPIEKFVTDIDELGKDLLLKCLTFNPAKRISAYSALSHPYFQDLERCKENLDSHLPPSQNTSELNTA
Sequence of CDK6/CycD3 (P30281 whole entry partner): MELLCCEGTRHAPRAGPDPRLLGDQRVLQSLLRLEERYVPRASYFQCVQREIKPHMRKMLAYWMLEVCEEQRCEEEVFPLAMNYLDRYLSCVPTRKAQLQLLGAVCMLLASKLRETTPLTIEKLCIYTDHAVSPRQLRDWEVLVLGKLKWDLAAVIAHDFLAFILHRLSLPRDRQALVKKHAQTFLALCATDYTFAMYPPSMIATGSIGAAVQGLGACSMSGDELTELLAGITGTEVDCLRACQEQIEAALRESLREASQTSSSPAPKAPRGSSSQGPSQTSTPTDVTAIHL
Sequence of CDK4/CycD (P11802 whole entry): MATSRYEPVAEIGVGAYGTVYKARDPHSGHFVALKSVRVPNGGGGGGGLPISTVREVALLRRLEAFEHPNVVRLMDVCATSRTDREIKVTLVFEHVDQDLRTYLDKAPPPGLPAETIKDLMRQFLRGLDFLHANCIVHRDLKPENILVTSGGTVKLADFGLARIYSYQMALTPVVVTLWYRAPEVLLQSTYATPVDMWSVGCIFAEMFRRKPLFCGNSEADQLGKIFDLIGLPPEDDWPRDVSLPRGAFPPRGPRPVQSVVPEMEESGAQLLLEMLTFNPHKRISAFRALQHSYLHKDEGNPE
Sequence of CDK4/CycD (P24385 whole entry partner): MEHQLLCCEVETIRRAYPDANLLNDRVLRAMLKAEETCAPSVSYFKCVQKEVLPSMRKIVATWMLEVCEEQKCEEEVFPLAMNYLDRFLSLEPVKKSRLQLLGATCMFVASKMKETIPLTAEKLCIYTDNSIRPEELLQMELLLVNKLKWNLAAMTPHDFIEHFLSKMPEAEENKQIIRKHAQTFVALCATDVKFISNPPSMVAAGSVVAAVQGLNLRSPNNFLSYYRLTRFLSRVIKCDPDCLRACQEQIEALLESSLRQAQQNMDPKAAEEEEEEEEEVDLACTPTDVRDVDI
Sequence of CDK5/p35 (Q00535 whole entry): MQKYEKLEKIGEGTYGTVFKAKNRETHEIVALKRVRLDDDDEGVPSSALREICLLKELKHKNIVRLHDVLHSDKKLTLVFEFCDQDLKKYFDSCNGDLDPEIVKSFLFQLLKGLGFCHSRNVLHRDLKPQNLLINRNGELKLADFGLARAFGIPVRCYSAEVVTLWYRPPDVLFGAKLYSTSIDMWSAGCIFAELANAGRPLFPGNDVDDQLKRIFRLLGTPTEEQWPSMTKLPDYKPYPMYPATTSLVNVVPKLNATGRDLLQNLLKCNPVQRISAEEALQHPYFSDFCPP
Sequence of CDK5/p35 (Q15078 whole entry partner): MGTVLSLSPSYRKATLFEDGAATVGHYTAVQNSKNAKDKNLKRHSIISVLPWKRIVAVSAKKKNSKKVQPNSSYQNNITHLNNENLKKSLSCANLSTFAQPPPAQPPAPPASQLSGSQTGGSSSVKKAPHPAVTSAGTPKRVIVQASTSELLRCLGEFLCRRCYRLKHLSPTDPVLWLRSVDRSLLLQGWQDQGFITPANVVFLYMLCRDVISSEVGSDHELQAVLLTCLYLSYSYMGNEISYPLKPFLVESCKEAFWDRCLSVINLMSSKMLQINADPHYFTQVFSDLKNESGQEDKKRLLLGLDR
Sequence of CDK5/p25 (Q00535 whole entry): as the sequence (Q00535 whole entry) above
Sequence of CDK7/CycH/MAT1 (P50613 whole entry): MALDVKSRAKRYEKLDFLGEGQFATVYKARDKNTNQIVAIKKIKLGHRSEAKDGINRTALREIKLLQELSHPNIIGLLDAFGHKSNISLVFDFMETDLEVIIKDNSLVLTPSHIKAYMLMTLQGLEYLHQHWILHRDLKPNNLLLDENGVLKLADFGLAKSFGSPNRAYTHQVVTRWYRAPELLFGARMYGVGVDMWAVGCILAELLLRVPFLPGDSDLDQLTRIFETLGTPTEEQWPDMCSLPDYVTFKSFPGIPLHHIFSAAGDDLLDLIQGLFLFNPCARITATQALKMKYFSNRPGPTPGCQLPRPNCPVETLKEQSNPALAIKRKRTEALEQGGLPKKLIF
Sequence of CDK7/CycH/MAT1 (P51946 whole entry partner): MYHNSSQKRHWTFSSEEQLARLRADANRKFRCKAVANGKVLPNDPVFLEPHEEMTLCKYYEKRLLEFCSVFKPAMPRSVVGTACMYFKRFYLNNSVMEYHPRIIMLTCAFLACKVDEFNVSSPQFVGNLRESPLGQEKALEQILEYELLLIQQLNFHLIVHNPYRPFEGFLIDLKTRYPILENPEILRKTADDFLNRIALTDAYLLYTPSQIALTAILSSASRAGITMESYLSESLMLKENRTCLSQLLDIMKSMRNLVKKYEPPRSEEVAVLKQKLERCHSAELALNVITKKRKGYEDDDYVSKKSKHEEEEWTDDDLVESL
Sequence of CDK7/CycH/MAT1 (P51948 whole entry partner): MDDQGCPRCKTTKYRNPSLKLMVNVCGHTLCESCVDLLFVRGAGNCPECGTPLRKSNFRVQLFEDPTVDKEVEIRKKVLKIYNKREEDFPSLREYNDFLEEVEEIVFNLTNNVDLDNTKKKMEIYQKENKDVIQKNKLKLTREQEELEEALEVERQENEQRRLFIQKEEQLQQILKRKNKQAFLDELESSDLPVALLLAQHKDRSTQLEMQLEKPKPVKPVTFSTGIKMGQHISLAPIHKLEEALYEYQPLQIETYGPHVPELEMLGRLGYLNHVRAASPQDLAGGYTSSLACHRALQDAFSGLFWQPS

| IC50 (CDK4/CycD) | IC50 (CDK6/CycD3) | IC50 (CDK2/CycE) | IC50 (CDK2/CycA) | IC50 (CDK5/p35) | IC50 (CDK5/p25) | IC50 (CDK7/CycH/MAT1) | IC50 (CDK9/CycT) | Compound |
| --- | --- | --- | --- | --- | --- | --- | --- | --- |
| 1.5 µM | 4 µM | 57 µM | 35.5 µM | – | – | – | – | C[C@H]1CNC(=O)N1c1ccnc(Nc2ccc(N3CCN(C)CC3)cn2)n1 [compound 52, (5S)-5-methyl-1-(2-{[5-(4-methylpiperazin-1-yl)pyridin-2-yl]amino}pyrimidin-4-yl)imidazolidin-2-one] |
| 0.44 µM | 1 µM | > 100 µM | > 100 µM | 38 µM | 39 µM | > 100 µM | 0.75 µM | CN1CCN(c2ccc(Nc3nccc(N4CC(=O)NCC45CCCCC5)n3)nc2)CC1 [compound 20, 1-(2-{[5-(4-Methylpiperazin-1-yl)pyridin-2-yl]amino}pyrimidin-4-yl)-1,4-diazaspiro[5.5]undecan-3-one] |
| 8.1 µM | 3.4 µM | > 100 µM | > 100 µM | 73 µM | 95 µM | 29.4 µM | 9.3 µM | CN1CCN(c2ccc(Nc3nccc(N4CCNC4=O)n3)nc2)CC1 [compound 16, 1-(2-{[5-(4-methylpiperazin-1-yl)pyridin-2-yl]amino}pyrimidin-4-yl)imidazolidin-2-one] |
| > 100 µM | > 100 µM | – | – | – | – | – | – | CC(C)C1CC(=O)NN1c1ccnc(Nc2ccc(N3CCN(C)CC3)cn2)n1 (stereo not shown) [compound 28, 5-Isopropyl-1-(2-{[5-(4-methylpiperazin-1-yl)pyridin-2-yl]amino}pyrimidin-4-yl)pyrazolidin-3-one] |
| 4 µM | 33 µM | > 100 µM | > 100 µM | – | – | – | – | CC[C@H]1CC(=O)NN1c1ccnc(Nc2ccc(N3CCN(C)CC3)cn2)n1 [compound 56, (S)-5-ethyl-1-(2-((5-(4-methylpiperazin-1-yl)pyridin-2-yl)amino)pyrimidin-4-yl)pyrazolidin-3-one] |
| > 100 µM | > 100 µM | > 100 µM | > 100 µM | > 100 µM | > 100 µM | > 100 µM | > 100 µM | CN1CCN(c2ccc(Nc3nccc(N4C(c5ccsc5)=NCC45CCCCC5)n3)nc2)CC1 [compound 55, N-(5-(4-methylpiperazin-1-yl)pyridin-2-yl)-4-(2-(thiophen-3-yl)-1,3-diazaspiro[4.5]dec-2-en-1-yl)pyrimidin-2-amine] |
| 3.27 µM | 16.2 µM | > 100 µM | > 100 µM | > 100 µM | > 100 µM | > 100 µM | > 100 µM | CN1CCN(c2ccc(Nc3nccc(N4C(=O)N(C)CC45CCCCC5)n3)nc2)CC1 [compound 8, 3-Methyl-1-(2-{[5-(4-methylpiperazin-1-yl)pyridin-2-yl]amino}pyrimidin-4-yl)-1,3-diazaspiro[4.5]decan-2-one] |
| > 100 µM | > 100 µM | > 100 µM | > 100 µM | > 100 µM | > 100 µM | > 100 µM | > 100 µM | CN1CCN(c2ccc(Nc3nccc(N4C(c5ccoc5)=NCC45CCCCC5)n3)nc2)CC1 [compound 54, 4-(2-(furan-3-yl)-1,3-diazaspiro[4.5]dec-2-en-1-yl)-N-(5-(4-methylpiperazin-1-yl)pyridin-2-yl)pyrimidin-2-amine] |
| 2.71 µM | 35.8 µM | > 100 µM | > 100 µM | > 100 µM | > 100 µM | > 100 µM | > 100 µM | CN1CCN(c2ccc(Nc3nccc(N4C(=O)N(Cc5ccccc5)CC45CCCCC5)n3)nc2)CC1 [compound 10, 3-benzyl-1-(2-{[5-(4-methylpiperazin-1-yl)pyridin-2-yl]amino}pyrimidin-4-yl)-1,3-diazaspiro[4.5]decan-2-one] |
| 1 µM | 4.98 µM | > 100 µM | > 100 µM | > 100 µM | > 100 µM | 95.9 µM | 9.63 µM | CN1CCN(c2ccc(Nc3nccc(N4C(=O)NCC45CCCCC5)n3)nc2)CC1 [compound 6, 1-(2-{[5-(4-methylpiperazin-1-yl)pyridin-2-yl]amino}pyrimidin-4-yl)-1,3-diazaspiro[4.5]decan-2-one] |
| 1.7 µM | 5.7 µM | 71 µM | 88 µM | – | – | – | – | C[C@H]1CNC(=O)CN1c1ccnc(Nc2ccc(N3CCN(C)CC3)cn2)n1 [compound 40, (5S)-5-Methyl-4-(2-{[5-(4-methylpiperazin-1-yl)pyridin-2-yl]amino}pyrimidin-4-yl)piperazin-2-one] |
| 0.761 µM | 3.3 µM | 23 µM | 9.7 µM | – | – | – | – | CC(C)[C@H]1CNC(=O)N1c1ccnc(Nc2ccc(N3CCN(C)CC3)cn2)n1 [compound 46, (5S)-5-Isopropyl-1-(2-{[5-(4-methylpiperazin-1-yl)pyridin-2-yl]amino}pyrimidin-4-yl)imidazolidin-2-one] |
| 14.4 µM | 51 µM | – | – | – | – | – | 22.9 µM | CN1CCN(c2ccc(Nc3nccc(N4CCNC(=O)C4)n3)nc2)CC1 [compound 32, 4-(2-{[5-(4-Methylpiperazin-1-yl)pyridin-2-yl]amino}pyrimidin-4-yl)piperazin-2-one] |
| > 100 µM | 71.3 µM | > 100 µM | > 100 µM | > 100 µM | > 100 µM | > 100 µM | > 100 µM | CN1CCN(c2ccc(Nc3nccc(N4C(c5ccccc5)=NCC45CCCCC5)n3)nc2)CC1 [compound 53, N-(5-(4-methylpiperazin-1-yl)pyridin-2-yl)-4-(2-phenyl-1,3-diazaspiro[4.5]dec-2-en-1-yl)pyrimidin-2-amine] |
